Source: patent US20240343747A1, “Heteroaryl compounds as inhibitors of TYK2, composition and application thereof” (Accro Bioscience (HK) Limited, priority 2021, published 2024)

Assays:
TYK2 JH2 = TYK2 JH2 (Homo sapiens (Human), UniProt P29597); assay: Competitive binding assay (kinase-tagged phage, qPCR), TYK2 JH2
Procedure: For most assays, kinase-tagged T7 phage strains were prepared in an E. coli host derived from the BL21 strain. E. coli were grown to log-phase and infected with T7 phage and incubated with shaking at 32° C. until lysis. The lysates were centrifuged and filtered to remove cell debris. The remaining kinases were produced in HEK-293 cells and subsequently tagged with DNA for qPCR detection. Streptavidin coated magnetic beads were treated with biotinylated small molecule ligands for 30 minutes at room temperature to generate affinity resins for kinase assays. The liganded beads were blocked with excess biotin and washed with blocking buffer (SeaBlock (Pierce), 1% BSA, 0.05% Tween 20, 1 mM DTT) to remove unbound ligand and to reduce non-specific binding. […] Test compounds were prepared as 111X stocks in 100% DMSO. Dissociation constants (Kds) were determined using an 11-point 3-fold compound dilution series with three DMSO control points. All compounds for Kd measurements are distributed by acoustic transfer (non-contact dispensing) in 100% DMSO. The compounds were then diluted directly into the assays such that the final concentration of DMSO was 0.9%. All reactions performed in polypropylene 384-well plate. Each was a final volume of 0.02 ml. The assay plates were incubated at room temperature with shaking for 1 hour and the affinity beads were washed with wash buffer (1×PBS, 0.05% Tween 20). The beads were then re-suspended in elution buffer (1×PBS, 0.05% Tween 20, 0.5 μM nonbiotinylated affinity ligand) and incubated at room temperature with shaking for 30 minutes. The kinase concentration in the eluates was measured by qPCR.
An 11-point 3-fold serial dilution of each test compound was prepared in 100% DMSO at 100× final test concentration and subsequently diluted to 1× in the assay (final DMSO concentration=1%). Most Kds were determined using a compound top concentration=30,000 nM. If the initial Kd determined was <0.5 nM (the lowest concentration tested), the measurement was repeated with a serial dilution starting at a lower top concentration.
Binding constants (Kds) were calculated with a standard dose-response curve using the Hill equation: […]
The Hill Slope was set to −1.
Curves were fitted using a non-linear least square fit with the Levenberg-Marquardt algorithm.

[1] = Plasma protein binding test, mouse; assay type: in vitro ADME
Procedure: (§1) • 1. Test compound and control compound were dissolved in dimethyl sulfoxide (DMSO) to achieve 10 mM stock solutions. DMSO working solutions were prepared at 400 μM. To prepare the loading matrix, compound working solutions (5 μL) were added in a 1:200 ratio to blank matrix (995 μL), and mixed thoroughly. • 2. To prepare the time zero (TO) samples to be used for recovery determination, 50 μL aliquots of loading matrix were transferred in triplicate to the sample collection plate. The samples were immediately matched with opposite blank buffer to obtain a final volume of 100 μL of 1:1 matrix/dialysis buffer (v/v) in each well. 500 μL of stop solution were added to these TO samples. They were then stored at 2-8° C. pending further processes along with other post-dialysis samples. • 3. To load the dialysis device, an aliquot of 150 μL of the loading matrix was transferred to the donor side of each dialysis well in triplicate, and 150 μL of the dialysis buffer was loaded to the receiver side of the well. The dialysis plate was placed in a humidified incubator at 37° C. with 5% CO2 on a shaking platform that rotated slowly (about 100 rpm) for 4 hours • 4. At the end of the dialysis, aliquots of 50 μL of samples were taken from both the buffer side and the matrix side of the dialysis device. These samples were transferred into new 96-well plates. Each sample was mixed with an equal volume of opposite blank matrix (buffer or matrix) to reach a final volume of 100 μL of 1:1 matrix/dialysis buffer (v/v) in each well. All samples were further processed by adding 500 μL of stop solution containing internal standards. The mixture was vortexed and centrifuged at 4000 rpm for about 20 minutes. An aliquot of 100 μL of supernatant of all the samples was then removed for LC-MS/MS analysis • 5. The single blank samples were prepared by transferring […] of blank matrix to a 96 well plate and adding 50 μL of blank PBS buffer to each well. The blank plasma must match the species of plasma used in the plasma side of the well. […]
(§2) The % Unbound and % Bound were calculated using the following equations: […]

[2] = Plasma protein binding test, dog; assay type: in vitro ADME
Procedure: as §1, §2

hERG channel = hERG channel (Homo sapiens (Human), UniProt Q12809); assay: cell-based
hERG channel, sequence (Q12809 whole entry): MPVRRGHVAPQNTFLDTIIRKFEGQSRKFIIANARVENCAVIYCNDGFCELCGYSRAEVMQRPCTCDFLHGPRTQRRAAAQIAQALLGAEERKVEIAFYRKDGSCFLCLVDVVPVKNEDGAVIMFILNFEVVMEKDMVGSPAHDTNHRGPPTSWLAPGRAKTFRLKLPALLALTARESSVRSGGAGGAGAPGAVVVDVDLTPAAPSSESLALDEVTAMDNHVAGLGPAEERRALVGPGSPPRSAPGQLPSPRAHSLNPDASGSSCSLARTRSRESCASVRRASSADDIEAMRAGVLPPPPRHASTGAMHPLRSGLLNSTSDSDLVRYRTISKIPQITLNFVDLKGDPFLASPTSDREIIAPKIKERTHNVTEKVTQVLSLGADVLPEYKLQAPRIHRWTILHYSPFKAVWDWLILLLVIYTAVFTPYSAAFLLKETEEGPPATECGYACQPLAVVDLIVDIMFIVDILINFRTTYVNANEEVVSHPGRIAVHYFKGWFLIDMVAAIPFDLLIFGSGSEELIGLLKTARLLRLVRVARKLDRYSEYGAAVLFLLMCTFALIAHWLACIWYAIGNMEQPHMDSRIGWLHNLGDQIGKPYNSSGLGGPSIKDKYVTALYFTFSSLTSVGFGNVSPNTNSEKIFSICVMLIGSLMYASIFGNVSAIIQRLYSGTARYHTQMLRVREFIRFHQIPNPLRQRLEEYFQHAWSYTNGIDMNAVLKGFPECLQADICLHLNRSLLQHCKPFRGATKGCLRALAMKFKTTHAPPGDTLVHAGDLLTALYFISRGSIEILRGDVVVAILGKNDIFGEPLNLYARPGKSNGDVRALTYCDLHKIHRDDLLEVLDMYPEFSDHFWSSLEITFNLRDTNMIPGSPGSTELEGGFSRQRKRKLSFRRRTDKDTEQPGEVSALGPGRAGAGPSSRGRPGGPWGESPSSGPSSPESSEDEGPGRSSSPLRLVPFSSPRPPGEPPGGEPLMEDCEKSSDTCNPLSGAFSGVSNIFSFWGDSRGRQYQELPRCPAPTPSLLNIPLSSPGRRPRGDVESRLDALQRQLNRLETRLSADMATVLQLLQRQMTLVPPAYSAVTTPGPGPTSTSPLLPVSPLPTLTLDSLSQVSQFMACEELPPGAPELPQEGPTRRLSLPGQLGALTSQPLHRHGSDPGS
Procedure: Chinese hamster ovary (CHO) cell line, CHO-hERG cells were used in this study. CHO-hERG cells were derived from Sophion Biosciences Inc. (Ballerup, Denmark) in Suzhou, China. The cell reserve fluid is frozen in liquid nitrogen tanks. Each batch of stored cell fluid is tested for mycoplasma contamination. The cells were no longer used after 30 generations.
The whole cell patch clamp technique was used to record hERG current at room temperature. The patch-clamp amplifier outputs signals through […] conversion and 2.9 KHz low-pass filtering. Data records were collected by Patchmaster Pro software.
Cells were planted in a cell recording tank and placed on an inverted microscope platform. One cell in the recording tank was randomly selected for experiment. The perfusion system was fixed on an inverted microscope platform and cells were continuously irrigated with ECS.
Manual patch clamp recording microelectrode was prepared with capillary glass tube, which was filled with intracellular fluid. On the day of the patch clamp test, the electrodes were prepared using a borosilicate glass tube (GC150TF-10, Harvard Apparatus Co. UK). The resistance is between 2-5 MΩ after the electrode is filled with ICS.
The clamping voltage was −80 mV, and the first step was depolarized to +60 mV for 850 ms to open the hERG channel. The voltage is then set to −50 mV and maintained for 1275 ms, resulting in a rebound current or tail current, the peak of which is measured and used for analysis. Finally, the voltage is restored to the clamping voltage (−80 mV). During the test, the command voltage program was repeated every 15 s.
At the beginning of recording the perfusion of the solvent control working solution, the test substance/positive control working solution to be tested can be poured after monitoring the tail current peak until more than 3 scanning curves are stable, until the inhibition of the test substance/positive control working solution to the hERG current peak reaches a stable state. Generally, the most recent three consecutive peak values of the current curve basically coincide as a criterion to judge whether the state is stable. After reaching a stable state, continue to pour one concentration of the test sample. One or more test subjects/positive controls, or multiple concentrations of the same drug, can be tested on a cell, and the different test subjects/positive controls need to be rinsed with a solvent control working fluid until the hERG current returns to more than 80% of its pre-drug level.
The concentration of positive control cisapride was 0.1 μM, and two cells were repeated.

TYK2 JH2, sequence (P29597 589-875): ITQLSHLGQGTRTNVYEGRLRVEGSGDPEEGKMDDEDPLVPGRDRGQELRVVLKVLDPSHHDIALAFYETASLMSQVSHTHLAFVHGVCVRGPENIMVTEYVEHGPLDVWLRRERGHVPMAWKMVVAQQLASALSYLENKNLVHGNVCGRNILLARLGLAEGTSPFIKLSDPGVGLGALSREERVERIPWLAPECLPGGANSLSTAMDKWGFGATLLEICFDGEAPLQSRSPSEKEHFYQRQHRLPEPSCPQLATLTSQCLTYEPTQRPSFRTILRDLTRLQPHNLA

Kd (TYK2 JH2) [nM]	fraction unbound at 4 h, 2 μM [1]	fraction unbound at 4 h, 2 μM [2]	Compound	IC50 (hERG channel) [µM]	inhibition on hERG channel (in words) (hERG channel)
0.043	0.067	0.119	CCC(=O)c1cnc(NC(=O)C2CC2)cc1Nc1cccc(-c2cc(P(C)(C)=O)n(C)n2)c1OC [Compound B2, N-(4-((3-(5-(dimethylphosphoryl)-1-methyl-1H-pyrazol-3-yl)-2-methoxyphenyl)amino)-5-propionylpyridin-2-yl)cyclopropanecarboxamide]	> 30	no inhibition
0.063	0.03	0.156	[2H]C([2H])([2H])n1nc(-c2cccc(Nc3cc(NC(=O)C4CC4)ncc3C(=O)CC)c2OC)cc1P(C)(C)=O [Compound B22]	> 30	no inhibition
0.044	–	–	CCC(=O)c1cnc(NC(=O)C2CC2)cc1Nc1cccc(-c2cc(P(=O)(C3CC3)C3CC3)n(C)n2)c1OC [Compound B37, N-(4-((3-(5-(dicyclopropylphosphoryl)-1-methyl-1H-pyrazol-3-yl)-2-methoxyphenyl)amino)-5-propionylpyridin-2-yl)cyclopropanecarboxamide]	> 30	no inhibition
–	0.018	0.019	[2H]C([2H])([2H])NC(=O)c1nnc(NC(=O)C2CC2)cc1Nc1cccc(-c2cc(P(=O)(C3CC3)C3CC3)n(C)n2)c1OC [Compound B41, 6-(cyclopropanecarboxamido)-4-((3-(5-(dicyclopropylphosphoryl)-1-methyl-1H-pyrazol-3-yl)-2-methoxyphenyl)amino)-N-(methyl-d3)pyridazine-3-carboxamide]	> 30	no inhibition
